According to PubChem BioAssay AID1338 (Columbia University Molecular Screening Center, 2008):
Calls of active or inactive are those of the source.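 The calls were made as follows: active = normalized inhibition above 25%; inactive = normalized inhibition below 25%.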

These compounds were tested against Tyrosine-protein phosphatase non-receptor type 22 (Homo sapiens) (UniProt Q9Y2R2) (assay: PTPN22 enzyme inhibition, catalase-containing buffer – biochemical, catalase added, Infinite200, 384-well (AID 1338)). Conditions: Recombinant LYP, DiFMUP fluorescence, with catalase; at 10 µM; hits give high values.
Chain of Tyrosine-protein phosphatase non-receptor type 22 (Homo sapiens) (Q9Y2R2 whole entry, looked up): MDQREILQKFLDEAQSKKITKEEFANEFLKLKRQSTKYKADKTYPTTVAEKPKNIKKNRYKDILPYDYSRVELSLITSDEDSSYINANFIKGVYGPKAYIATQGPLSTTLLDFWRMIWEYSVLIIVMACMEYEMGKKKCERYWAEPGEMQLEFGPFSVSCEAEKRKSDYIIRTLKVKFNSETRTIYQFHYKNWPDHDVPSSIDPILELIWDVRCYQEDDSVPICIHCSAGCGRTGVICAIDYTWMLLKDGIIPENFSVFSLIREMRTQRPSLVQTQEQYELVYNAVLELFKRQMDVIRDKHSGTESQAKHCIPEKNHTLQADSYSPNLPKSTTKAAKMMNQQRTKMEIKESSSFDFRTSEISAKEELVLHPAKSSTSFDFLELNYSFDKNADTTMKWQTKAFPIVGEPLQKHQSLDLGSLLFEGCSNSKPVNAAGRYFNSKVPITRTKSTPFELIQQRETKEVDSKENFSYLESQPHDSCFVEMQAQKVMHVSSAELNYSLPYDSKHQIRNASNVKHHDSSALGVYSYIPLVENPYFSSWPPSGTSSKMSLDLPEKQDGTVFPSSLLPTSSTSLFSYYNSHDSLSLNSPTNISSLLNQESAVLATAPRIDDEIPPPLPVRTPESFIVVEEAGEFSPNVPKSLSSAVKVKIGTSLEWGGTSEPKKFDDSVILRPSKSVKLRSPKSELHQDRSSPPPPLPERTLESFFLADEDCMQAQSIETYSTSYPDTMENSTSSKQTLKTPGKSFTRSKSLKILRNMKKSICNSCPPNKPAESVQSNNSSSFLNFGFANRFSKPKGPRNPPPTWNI

inhibition	SMILES
13% (inactive)	CC(C)C(C(=O)O)N1C(=O)/C(=C/C=C/c2ccco2)SC1=S (stereo unspecified)
49%	COc1cc(-c2nnc(SCc3cc(=O)oc4cc(O)c(O)cc34)o2)cc(OC)c1OC
54.4%	COc1cccc(OC)c1-c1nn2c(-c3cc(-c4ccccc4)n[nH]3)nnc2s1
2.7% (inactive)	CC(C(=O)O)N1C(=O)/C(=C/C=C/c2ccco2)SC1=S (stereo unspecified)
36.5%	O=C(O)CCCN1C(=O)/C(=C/c2ccc(-c3nc4ccccc4s3)o2)SC1=S
48.2%	Cc1ccc(NC(=O)CN2C(=O)S/C(=C\c3cccn3-c3cccc(C(=O)O)c3)C2=O)c(C)c1
48.9%	O=C(O)CCN1C(=O)/C(=C/c2ccc(-c3nc4ccccc4s3)o2)SC1=S
34.1%	Cn1nc(-c2ccc(Cl)cc2)nc2c(=O)n(C)c(=O)nc1-2
51.5%	O=C(c1cccs1)c1no[n+]([O-])c1C(=O)c1cccs1
4% (inactive)	O=[N+]([O-])c1cc(/C=N\Nc2nccs2)ccc1O
32.2%	Nc1c(C(=O)Nc2nc3ccccc3s2)sc2nc(-c3cccs3)ccc12
